# Target: T1, cPLA2 (Homo sapiens, UniProt P47712)
# T1 sequence (P47712 1-749): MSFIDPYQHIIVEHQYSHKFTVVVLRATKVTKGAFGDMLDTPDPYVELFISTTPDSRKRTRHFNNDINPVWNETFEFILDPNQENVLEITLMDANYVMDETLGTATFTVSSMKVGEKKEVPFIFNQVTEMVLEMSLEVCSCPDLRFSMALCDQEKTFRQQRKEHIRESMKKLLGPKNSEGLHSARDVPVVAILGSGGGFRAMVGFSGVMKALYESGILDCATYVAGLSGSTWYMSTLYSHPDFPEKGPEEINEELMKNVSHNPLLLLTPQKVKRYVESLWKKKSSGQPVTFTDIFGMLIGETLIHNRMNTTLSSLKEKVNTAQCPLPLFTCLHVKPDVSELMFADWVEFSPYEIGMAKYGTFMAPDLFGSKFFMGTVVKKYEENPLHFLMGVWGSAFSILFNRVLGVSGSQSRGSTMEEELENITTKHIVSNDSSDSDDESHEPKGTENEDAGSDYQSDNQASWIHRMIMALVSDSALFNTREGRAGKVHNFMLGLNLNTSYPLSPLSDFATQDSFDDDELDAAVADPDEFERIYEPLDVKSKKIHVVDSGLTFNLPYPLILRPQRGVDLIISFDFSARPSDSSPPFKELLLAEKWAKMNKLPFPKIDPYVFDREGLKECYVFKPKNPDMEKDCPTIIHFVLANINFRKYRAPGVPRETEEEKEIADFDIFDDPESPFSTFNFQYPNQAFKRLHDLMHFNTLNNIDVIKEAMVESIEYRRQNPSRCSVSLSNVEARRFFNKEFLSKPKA
# Test: Coumarine Assay (hydrolysis of 7-hydroxycoumarinyl 6-heptenoate by cPLA2, fluorometric)
# Assay type: biochemical
# Details: 60 μM 7-hydroxycoumarinyl 6-heptenoate substrate, 4 μg cPLA2, pH 7.5, excitation 360 nm / emission 460 nm; read-out: Coumarin IC50
row,Compound,IC50
1,2-{2-[1-Benzhydryl-5-chloro-2-(2-phenylmethanesulfonylamino-ethyl)-1H-indol-3-yl]-ethoxy}-benzoic acid [Example 283],0.5 µM
2,"4-[2-(1-benzhydryl-5-chloro-2-{2-[({2-[(3R,5S)-3,5-dimethylmorpholin-4-yl]ethyl}sulfonyl)amino]ethyl}-1H-indol-3-yl)ethoxy]benzoic acid [Example 250]",2.1 µM
3,4-{2-[1-Benzhydryl-5-chloro-2-{2-[({2-trifluoromethylsulfonylbenzene}-sulfonyl)amino]ethyl}-1H-indol-3-yl)propyl]benzoic acid [Example 208],0.24 µM
4,"4-{2-[1-benzhydryl-5-chloro-2-(2-{[(2,6-dimethylbenzyl)sulfonyl]amino}ethyl)-1H-indol-3-yl]ethoxy}benzoic acid [Example 279]",0.16 µM
5,"Nc1ccccc1CS(=O)(=O)NCCc1cc(OCCc2cn(C(c3ccccc3)c3ccccc3)c3ccc(Cl)cc23)ccc1C(=O)O [Example 16, 2-(2-{[(2-Aminobenzyl)sulfonyl]amino}ethyl)-4-{2-[1-benzhydryl-5-chloro-1H-indol-3-yl]ethoxy}benzoic acid]",0.98 µM
6,"CC(Cc1ccc(C(=O)O)cc1)c1c(CCNS(=O)(=O)Cc2ccccc2[N+](=O)[O-])n(C(c2ccccc2)c2ccccc2)c2ccc(Cl)cc12 (stereo not drawn) [Example 56, 4-{2-[1-Benzhydryl-5-chloro-2-{2-[({2-nitrobenzyl}-sulfonyl)amino]ethyl}-1H-indol-3-yl)propyl]benzoic acid]",0.13 µM
7,O=C(O)c1ccc(OCCc2c(CCNS(=O)(=O)Cc3ccc(Cl)c(Cl)n3)n(C(c3ccccc3)c3ccccc3)c3ccc(Cl)cc23)cc1 [Example 76],0.4 µM
8,COc1ccccc1SCS(=O)(=O)NCCc1c(CCOc2ccc(C(=O)O)cc2)c2cc(Cl)ccc2n1C(c1ccccc1)c1ccccc1 [Example 83],0.45 µM
9,"CC(C)Oc1cc(OCCc2c(CCNS(=O)(=O)Cc3ccc(Cl)c(Cl)c3)n(C(c3ccccc3)c3ccccc3)c3ccc(Cl)cc23)ccc1C(=O)O [Example 300, 4-{2-[1-benzhydryl-5-chloro-2-(2-{[(3,4-dichlorobenzyl)sulfonyl]amino}ethyl)-1H-indol-3-yl]ethoxy}-2-isopropoxybenzoic acid]",> 2 µM

# Tested on: not given
# Test: not given
# Details: not given
row,melting point,Compound
1,117 to 119 °C,"O=C(O)c1ccc(OCCc2c(CCNS(=O)(=O)Cc3ccc(Cl)c(Cl)c3)n(C(c3ccccc3)c3ccccc3)c3ccc(Cl)cc23)cc1F [Example 296, 4-{2-[1-benzhydryl-5-chloro-2-(2-{[(3,4-dichlorobenzyl)sulfonyl]amino}ethyl)-1H-indol-3-yl]ethoxy}-2-fluorobenzoic acid]"
2,132 to 135 °C,"O=C(O)c1ccc(OCCc2c(CCNS(=O)(=O)Cc3ccccc3Cl)n(C(c3ccccc3)c3ccccc3)c3ccc(Cl)cc23)cc1F [Example 297, 4-{2-[1-benzhydryl-5-chloro-2-(2-{[(2-chlorobenzyl)sulfonyl]amino}ethyl)-1H-indol-3-yl]ethoxy}-2-fluorobenzoic acid]"
3,207 to 208 °C,"CC(C)(Cc1ccc(S(=O)(=O)CCc2c(CCNS(=O)(=O)Cc3ccc(Cl)c(Cl)c3)n(C(c3ccccc3)c3ccccc3)c3ccc(Cl)cc23)cc1)C(=O)O [Example 298, 3-[4-({2-[1-benzhydryl-5-chloro-2-(2-{[(3,4-dichlorobenzyl)sulfonyl]amino}ethyl)-1H-indol-3-yl]ethyl}sulfonyl)phenyl]-2,2-dimethylpropanoic acid]"

# — patent publication US7101875B2, “Methods for treating arthritic disorders” (Wyeth, priority 2001, dated 2006)
